Legend:
AD169^R = assay: Cells pre-incubation / washout study; format: cell-based, Human cytomegalovirus
Description: (C) NHDF cells were pre-incubated with DMSO, MBX-4992 or heparin prior to virus addition. After addition of AD169^R (MOI 0.2) for 30 min, media was either unchanged or replaced with media containing DMSO, MBX-4992, or heparin. Virus infection was quantified at 24 hpi by GFP fluorescence. Percent infection was normalized to untreated cells. Statistical tests were performed using ordinary one-way ANOVA with multiple comparisons to DMSO treated cells as a control and a Dunnett's post-test: *, p<0.05; ****, p<0.0001.
NHDF cells (10^4) plated overnight in a 96-well plate were pretreated with MBX-4992 (10 μM), heparin (50 μg/mL) or DMSO for 1 hour at 37° C. The plate was then placed at 4° C. for 5 minutes followed by the addition of AD169^R CMV virus for 30 minutes. 2/3rd of the samples were aspirated post binding. Half of those samples received DMSO media, regardless of the drug the cells were previously exposed to. The remaining wells received either MBX-4992 (10 μM) or Heparin (50 μg/mL) overnight. At 18 hpi, the cells were fixed with 4% paraformaldehyde, stained with a rabbit anti-IE1 antibody followed by an anti-rabbit Alexa 647, and analyzed using the Celigo cytometer. The DMSO condition that was not aspirated post binding was set as 100% infection.
We next examined whether pre-treating cells with MBX-4992 can limit virus infection. Cells were pre-treated with MBX-4992 or heparin for […] followed by the addition of AD169^R for 30 min at 4° C. The cells were either washed out or unchanged as indicated and replaced with media containing DMSO, MBX-4992, or heparin followed by incubation at 37° C. At 18 hpi, virus infection was evaluated using a Celigo cytometer.

MCMV Smith = assay: Herpes virus panel neutralization, MCMV; format: cell-based, Murine cytomegalovirus
Description: (§1) To determine the specificity of MBX-4992, additional neutralization experiments were conducted using a panel of herpes viruses performed in the presence of MBX-4992. […] Collectively, the antiviral activity of MBX-4992 is equivalent to that of GCV indicating specific inhibition of CMV replication.

AD169 and AD169^R = assay: IE1 expression 2 days post-infection in fibroblasts; format: cell-based, Human cytomegalovirus
Description: HCMV strains AD169^R (A) and AD169 (B) infection (MOI 0.2) of NHDF cells pre-treated with 0, 5, and 20 μM MBX-4992 were assessed at 1 dpi or 2 dpi based on IE1 expression by anti-IE1 immunostain. The % infection was determined using DMSO-treated as 100% infection. The error bars represent values in triplicate. Statistical tests were performed using ordinary one-way ANOVA with multiple comparisons to DMSO treated cells as a control and a Dunnett's post-test; **, p<0.01; ****, p<0.0001. (C) Total cell lysates from AD169^R-infected (MOI 0.2) ARPE-19 cells pre-treatment with DMSO, MBX-4992 (1-20 μM) or heparin (50 μg/mL) collected at 24 hpi were subjected to Western blot analysis using a rabbit anti-IE-1 antibody (lanes 1-7) and an anti-GAPDH antibody (lanes 8-14) as a loading control. The molecular weight markers and respective proteins are indicated.
(FIG. 11A-G). […] The IC50 values were similar in diverse cell types and among the different strains further supporting that NAPA compounds are effective at inhibiting CMV infection.

VZV Ellen = assay: Herpes virus panel neutralization, VZV; format: cell-based, Varicella-Zoster virus
Description: as §1

CMV AD169^IE2-YFP = assay: Anti-CMV activity (IC50) of NAPA compounds, AD169 IE2-YFP reporter virus high-content assay in fibroblasts; format: cell-based, Human cytomegalovirus
Description: To identify CMV inhibitors, a high-content screening (HCS) early-stage-specific reporter assay using a CMV AD169 yellow-fluorescent protein (YFP) expressing virus (AD169^IE2-YFP) (Gardner et al., Antiviral Res., 113:49-61 (2015)) was developed to screen >112,000 compounds to identify potent inhibitors (IC50<10 μM) of cytomegalovirus having a minimal mammalian cytotoxicity (CC50) of preferably ≥100 μM. As a result, we have identified, isolated, and characterized a novel series of N-arylpyrimidinamines (NAPAs) that inhibit CMV infection. […] Further, the NAPA compounds are broadly effective at inhibiting virus infection of diverse strains and cell types.
The CMV IE1 and IE2 gene products are translated within 3-6 hours post infection (hpi) and function to stimulate viral promoters to initiate transcription of early and late viral genes (Cherrington et al., J. Virol., 63:1435-40 (1989); Meier et al., J. Virol., 71:1246-1255 (1997)). The CMV AD169 variant that expresses a viral protein chimera consisting of IE2-YFP (AD1691E2/YFP) was utilized to quantify virus infection in a high-throughput screen by a robust fluorescent signal localized exclusively to the nucleus (8-24 hpi) (Gardner et al., supra (2015); Cohen et al., Viruses, 8 (10): 295 (2016); Cohen et al., J. Virol., 90:10715-10727 (2016)). Using the AD1691E2-YFP reporter virus assay, a collection of the compound libraries (>112,000 compounds) was screened for inhibitors of the early stages of CMV replication using a confocal fluorescence microscopic plate reader (BioTek Cytation3). Infection was calculated as a percentage of nuclei containing YFP and cycloheximide (8 μM) was used as a positive control. The Z′ factor for the optimized assay was >0.5 which was sufficient to initiate screening.
We evaluated 300 primary hits using an assay funnel designed to prioritize compounds based on antiviral activity, specificity, and drug-like properties. This identified two candidates for hit-to-lead optimization that were not Pan Assay Interference compounds (PAINS) (Baell et al., J. Med. Chem., 53:2719-40 (2010); Capuzzi et al., J. Chem. Inf. Model 57:417-427 (2017); Dahlin et al., Assay Drug Dev. Technol., 14:168-174 (2016)). […] The NAPA series was chosen as the primary hit-to-lead series due to its synthetic accessibility and the >2-log range in potency observed in the preliminary SAR that provides a clear pathway to improving antiviral activity and drug-like properties.

CYP3A4 = CYP3A4 (Homo sapiens, UniProt P08684); assay: CYP3A4 inhibition at 10 μM; format: in vitro ADME; conditions: % inhibition of CYP3A4 at 10 μM
Sequence of CYP3A4 (P08684 whole entry, species assumed): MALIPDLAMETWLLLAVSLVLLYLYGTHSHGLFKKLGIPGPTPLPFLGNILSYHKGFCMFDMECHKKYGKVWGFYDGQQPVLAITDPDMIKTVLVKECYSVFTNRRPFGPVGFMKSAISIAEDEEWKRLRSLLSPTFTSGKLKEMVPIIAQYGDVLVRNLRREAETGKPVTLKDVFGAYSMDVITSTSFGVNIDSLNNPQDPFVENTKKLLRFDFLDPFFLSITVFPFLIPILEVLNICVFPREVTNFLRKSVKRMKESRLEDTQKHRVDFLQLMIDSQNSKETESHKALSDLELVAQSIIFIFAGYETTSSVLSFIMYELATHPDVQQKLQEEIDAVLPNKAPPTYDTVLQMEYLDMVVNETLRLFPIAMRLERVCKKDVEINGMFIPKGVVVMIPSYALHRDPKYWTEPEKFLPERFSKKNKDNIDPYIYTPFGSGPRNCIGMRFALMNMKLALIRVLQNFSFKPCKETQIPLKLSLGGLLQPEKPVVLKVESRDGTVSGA

Cc1nc(Nc2ccc(NC(=O)c3ccco3)cc2)cc(N2CCCC2)n1 [MBX-4992]
virus infection, drug removed (AD169^R; cells pre-incubated and compound sequentially removed): do not significantly impact infection | virus infection, drug not removed or added back (AD169^R; cells pre-treated, drugs not removed or added back to washed-out cells): significantly inhibited virus infection | SI (MCMV Smith; MCMV Smith): >33 | IC50 (MCMV Smith; Murid betaherpesvirus 1): 4.5 µM | IE1 expression (AD169 and AD169^R): similarly effective at limiting IE1 expression | SI (VZV Ellen): <5 | IC50 (VZV Ellen; Human alphaherpesvirus 3): > 30 µM | selectivity index (SI) (CMV AD169^IE2-YFP; CC50/IC50): > 50 | IC50 (CMV AD169^IE2-YFP; Human betaherpesvirus 5, AD169, Fibroblast): 1.72 µM | CYP (CYP3A4): <10%

Source: US20250177392A1, “BROAD SPECTRUM INHIBITORS OF CYTOMEGALOVIRUS” (MICROBIOTIX, INC., priority 2022, published 2025)
